# In US10543212B2, “Substituted amines for treating cardiac diseases” (Cardurion Pharmaceuticals, LLC, priority 2017, dated 2020):
# Molecular target: T1, Full-length, GST-tagged, human CaMKIIδ (Homo sapiens, UniProt Q13557)
# T1 construct: Full-Length, Glutathione-S-Transferase(GST)-Tagged, Human CaMKIIδ was purchased from Carna Biosciences; purchased Carna Biosciences 02-111
# Test: CaMKIIδ binding assay (TR-FRET with BODIPY-labeled probe ligand)
# Settings: Table 2; activity class for CaMKIIδ
# Summary of the method: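 TR-FRET probe-displacement binding: 0.5 nM GST-CaMKIIδ with 10 μg/mL calmodulin, 1 mM CaCl2, 0.21 nM Tb-anti-GST Ab and 300 nM BODIPY probe in HEPES pH 7.6 buffer. Eight-point 4-fold dilutions, 1 hr at room temperature. IC50 from logistic fit; 100% inhibition defined by 3 μM parent compound.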
# T1 sequence (Q13557 1-478 isoform Q13557-12): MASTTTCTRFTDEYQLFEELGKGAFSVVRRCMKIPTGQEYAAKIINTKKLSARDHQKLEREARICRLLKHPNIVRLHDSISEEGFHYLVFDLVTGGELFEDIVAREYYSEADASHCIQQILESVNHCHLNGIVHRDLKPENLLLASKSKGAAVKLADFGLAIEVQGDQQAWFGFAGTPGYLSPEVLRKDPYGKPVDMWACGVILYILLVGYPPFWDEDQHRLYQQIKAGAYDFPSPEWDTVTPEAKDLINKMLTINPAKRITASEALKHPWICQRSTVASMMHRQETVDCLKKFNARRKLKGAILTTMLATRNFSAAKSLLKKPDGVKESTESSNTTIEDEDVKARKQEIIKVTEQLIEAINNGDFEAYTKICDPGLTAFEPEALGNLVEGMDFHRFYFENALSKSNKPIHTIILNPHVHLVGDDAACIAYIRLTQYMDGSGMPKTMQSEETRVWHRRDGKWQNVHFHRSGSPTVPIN
row,Structure (SMILES),IC50 [nM]
1,"C[C@@H](Cn1cnnn1)Oc1cc(-c2cnc(Nc3cn(CC4CN(Cc5ccccc5)CCO4)nc3C(F)(F)F)nc2)ccc1Cl (stereo partly drawn) [Example 641, 5-(3-(((S)-1-(1H-tetrazol-1-yl)propan-2-yl)oxy)-4-chlorophenyl)-N-(1-((4-benzylmorpholin-2-yl)methyl)-3-(trifluoromethyl)-1H-pyrazol-4-yl)pyrimidin-2-amine]",≥ 100
2,"CCn1cc(Nc2ncc(-c3ccc(Cl)c(O[C@@H](C)Cn4cnnn4)c3)cn2)c(C2CC2)n1 [Example 642, (S)-5-(3-((1-(1H-tetrazol-1-yl)propan-2-yl)oxy)-4-chlorophenyl)-N-(3-cyclopropyl-1-ethyl-1H-pyrazol-4-yl)pyrimidin-2-amine]",10 to 100
3,"CCn1cc(Nc2ncc(-c3ccc(Cl)c(O[C@@H](C)Cn4cnnn4)c3)cn2)c(-c2ccccc2)n1 [Example 643, (S)-5-(3-((1-(1H-tetrazol-1-yl)propan-2-yl)oxy)-4-chlorophenyl)-N-(1-ethyl-3-phenyl-1H-pyrazol-4-yl)pyrimidin-2-amine]",10 to 100
4,"C[C@@H](Cn1cnnn1)Oc1cc(-c2cnc(Nc3cn(C4CCOC4)nc3C(F)(F)F)nc2)ccc1Cl (stereo partly drawn) [Example 644, 5-(3-(((S)-1-(1H-tetrazol-1-yl)propan-2-yl)oxy)-4-chlorophenyl)-N-(1-(tetrahydrofuran-3-yl)-3-(trifluoromethyl)-1H-pyrazol-4-yl)pyrimidin-2-amine]",10 to 100
5,"C[C@@H](Cn1cnnn1)Oc1cc(-c2cnc(Nc3cn(C4CCOCC4)nc3C(F)(F)F)nc2)ccc1Cl [Example 645, (S)-5-(3-((1-(1H-tetrazol-1-yl)propan-2-yl)oxy)-4-chlorophenyl)-N-(1-(tetrahydro-2H-pyran-4-yl)-3-(trifluoromethyl)-1H-pyrazol-4-yl)pyrimidin-2-amine]",10 to 100
6,"COc1nn(C2CCN(C(=O)OC(C)(C)C)CC2)cc1Nc1ncc(-c2ccc(Cl)c(O[C@@H](C)Cn3cnnn3)c2)cn1 [Example 646, tert-butyl (S)-4-(4-((5-(3-((1-(1H-tetrazol-1-yl)propan-2-yl)oxy)-4-chlorophenyl)pyrimidin-2-yl)amino)-3-methoxy-1H-pyrazol-1-yl)piperidine-1-carboxylate]",10 to 100
7,"COc1cc(N2CCN(C3CCOCC3)CC2)cnc1Nc1ncc(-c2ccc(Cl)c(O[C@@H](C)Cn3cnnn3)c2)cn1 [Example 647, (S)-5-(3-((1-(1H-tetrazol-1-yl)propan-2-yl)oxy)-4-chlorophenyl)-N-(3-methoxy-5-(4-(tetrahydro-2H-pyran-4-yl)piperazin-1-yl)pyridin-2-yl)pyrimidin-2-amine]",10 to 100
8,"COc1cc(N2CCN(CC3COC3)CC2)cnc1Nc1ncc(-c2ccc(Cl)c(O[C@@H](C)Cn3cnnn3)c2)cn1 [Example 648, (S)-5-(3-((1-(1H-tetrazol-1-yl)propan-2-yl)oxy)-4-chlorophenyl)-N-(3-methoxy-5-(4-(oxetan-3-ylmethyl)piperazin-1-yl)pyridin-2-yl)pyrimidin-2-amine]",10 to 100
9,"COc1cc(N2CCNC[C@@H]2C)ccc1Nc1ncc(-c2ccc(Cl)c(O[C@@H](C)Cn3cnnn3)c2)cn1 [Example 649, 5-(3-(((S)-1-(1H-tetrazol-1-yl)propan-2-yl)oxy)-4-chlorophenyl)-N-(2-methoxy-4-((S)-2-methylpiperazin-1-yl)phenyl)pyrimidin-2-amine]",< 10
10,"COc1cc(N2CCN(C3CCOCC3)CC2)ncc1Nc1ncc(-c2ccc(Cl)c(O[C@@H](C)Cn3cnnn3)c2)cn1 [Example 650, (S)-5-(3-((1-(1H-tetrazol-1-yl)propan-2-yl)oxy)-4-chlorophenyl)-N-(4-methoxy-6-(4-(tetrahydro-2H-pyran-4-yl)piperazin-1-yl)pyridin-3-yl)pyrimidin-2-amine]",< 10
11,"COc1cc(N2CCN(C3CCOC3)CC2)ncc1Nc1ncc(-c2ccc(Cl)c(O[C@@H](C)Cn3cnnn3)c2)cn1 (stereo partly drawn) [Example 651, 5-(3-(((S)-1-(1H-tetrazol-1-yl)propan-2-yl)oxy)-4-chlorophenyl)-N-(4-methoxy-6-(4-(tetrahydrofuran-3-yl)piperazin-1-yl)pyridin-3-yl)pyrimidin-2-amine]",10 to 100
12,"COc1cc(N2CCN(CC3COC3)CC2)ncc1Nc1ncc(-c2ccc(Cl)c(O[C@@H](C)Cn3cnnn3)c2)cn1 [Example 652, (S)-5-(3-((1-(1H-tetrazol-1-yl)propan-2-yl)oxy)-4-chlorophenyl)-N-(4-methoxy-6-(4-(oxetan-3-ylmethyl)piperazin-1-yl)pyridin-3-yl)pyrimidin-2-amine]",10 to 100
13,"COc1cc(N2C[C@@H]3C[C@H]2CN3C2CCOCC2)ccc1Nc1ncc(-c2ccc(Cl)c(O[C@@H](C)Cn3cnnn3)c2)cn1 [Example 653, 5-(3-(((S)-1-(1H-tetrazol-1-yl)propan-2-yl)oxy)-4-chlorophenyl)-N-(2-methoxy-4-((1S,4S)-5-(tetrahydro-2H-pyran-4-yl)-2,5-diazabicyclo[2.2.1]heptan-2-yl)phenyl)pyrimidin-2-amine]",10 to 100
14,"COc1cc(N2CCN(C3CCOCC3)C[C@@H]2C)ccc1Nc1ncc(-c2ccc(Cl)c(O[C@@H](C)Cn3cnnn3)c2)cn1 [Example 654, 5-(3-(((S)-1-(1H-tetrazol-1-yl)propan-2-yl)oxy)-4-chlorophenyl)-N-(2-methoxy-4-((S)-2-methyl-4-(tetrahydro-2H-pyran-4-yl)piperazin-1-yl)phenyl)pyrimidin-2-amine]",< 10
15,"COCCn1nc(C)cc1Nc1ncc(-c2ccc(Cl)c(O[C@@H](C)Cn3cnnn3)c2)cn1 [Example 655, (S)-5-(3-((1-(1H-tetrazol-1-yl)propan-2-yl)oxy)-4-chlorophenyl)-N-(1-(2-methoxyethyl)-3-methyl-1H-pyrazol-5-yl)pyrimidin-2-amine]",≥ 100
16,"COc1ccc(N2CC(CN3CCOCC3)C2)cc1Nc1ncc(-c2ccc(Cl)c(O[C@@H](C)Cn3cnnn3)c2)cn1 [Example 656, (S)-5-(3-((1-(1H-tetrazol-1-yl)propan-2-yl)oxy)-4-chlorophenyl)-N-(2-methoxy-5-(3-(morpholinomethyl)azetidin-1-yl)phenyl)pyrimidin-2-amine]",< 10
17,"COc1nn(C2CCNCC2)cc1Nc1ncc(-c2ccc(Cl)c(O[C@@H](C)Cn3cnnn3)c2)cn1 [Example 657, (S)-5-(3-((1-(1H-tetrazol-1-yl)propan-2-yl)oxy)-4-chlorophenyl)-N-(3-methoxy-1-(piperidin-4-yl)-1H-pyrazol-4-yl)pyrimidin-2-amine]",< 10
18,"C[C@@H](Cn1cnnn1)Oc1cc(-c2cnc(Nc3cn(Cc4nc5ccccc5[nH]4)nc3C(F)(F)F)nc2)ccc1Cl [Example 658, (S)-N-(1-((1H-benzo[d]imidazol-2-yl)methyl)-3-(trifluoromethyl)-1H-pyrazol-4-yl)-5-(3-((1-(1H-tetrazol-1-yl)propan-2-yl)oxy)-4-chlorophenyl)pyrimidin-2-amine]",10 to 100
19,"Cc1cc(Nc2ncc(-c3ccc(Cl)c(O[C@@H](C)Cn4cnnn4)c3)cn2)n(CC(F)(F)F)n1 [Example 659, (S)-5-(3-((1-(1H-tetrazol-1-yl)propan-2-yl)oxy)-4-chlorophenyl)-N-(3-methyl-1-(2,2,2-trifluoroethyl)-1H-pyrazol-5-yl)pyrimidin-2-amine]",10 to 100
20,"Cc1cc(Nc2ncc(-c3ccc(Cl)c(O[C@@H](C)Cn4cnnn4)c3)cn2)n(-c2ccccn2)n1 [Example 660, (S)-5-(3-((1-(1H-tetrazol-1-yl)propan-2-yl)oxy)-4-chlorophenyl)-N-(3-methyl-1-(pyridin-2-yl)-1H-pyrazol-5-yl)pyrimidin-2-amine]",≥ 100
21,"COc1nn(C2CCN(C3COC3)CC2)cc1Nc1ncc(-c2ccc(Cl)c(O[C@@H](C)Cn3cnnn3)c2)cn1 [Example 661, (S)-5-(3-((1-(1H-tetrazol-1-yl)propan-2-yl)oxy)-4-chlorophenyl)-N-(3-methoxy-1-(1-(oxetan-3-yl)piperidin-4-yl)-1H-pyrazol-4-yl)pyrimidin-2-amine]",< 10
22,"COc1nn(C2CCN(C3CCOCC3)CC2)cc1Nc1ncc(-c2ccc(Cl)c(O[C@@H](C)Cn3cnnn3)c2)cn1 [Example 662, (S)-5-(3-((1-(1H-tetrazol-1-yl)propan-2-yl)oxy)-4-chlorophenyl)-N-(3-methoxy-1-(1-(tetrahydro-2H-pyran-4-yl)piperidin-4-yl)-1H-pyrazol-4-yl)pyrimidin-2-amine]",< 10
23,"C[C@@H](Cn1cnnn1)Oc1cc(-c2cnc(Nc3cn(C4CCSCC4)nc3C(F)(F)F)nc2)ccc1Cl [Example 663, (S)-5-(3-((1-(1H-tetrazol-1-yl)propan-2-yl)oxy)-4-chlorophenyl)-N-(1-(tetrahydro-2H-thiopyran-4-yl)-3-(trifluoromethyl)-1H-pyrazol-4-yl)pyrimidin-2-amine]",10 to 100
24,"C[C@@H](Cn1cnnn1)Oc1cc(-c2cnc(Nc3cn(C4CCN(C5CCOCC5)CC4)nc3OC(F)F)nc2)ccc1Cl [Example 664, (S)-5-(3-((1-(1H-tetrazol-1-yl)propan-2-yl)oxy)-4-chlorophenyl)-N-(3-(difluoromethoxy)-1-(1-(tetrahydro-2H-pyran-4-yl)piperidin-4-yl)-1H-pyrazol-4-yl)pyrimidin-2-amine]",< 10
25,"COc1nc(N2CCCN(C(=O)OC(C)(C)C)CC2)ccc1Nc1ncc(-c2ccc(Cl)c(O[C@@H](C)Cn3cnnn3)c2)cn1 [Example 665, tert-butyl (S)-4-(5-((5-(3-((1-(1H-tetrazol-1-yl)propan-2-yl)oxy)-4-chlorophenyl)pyrimidin-2-yl)amino)-6-methoxypyridin-2-yl)-1,4-diazepane-1-carboxylate]",≥ 100
26,"COc1nc(N2CCCNCC2)ccc1Nc1ncc(-c2ccc(Cl)c(O[C@@H](C)Cn3cnnn3)c2)cn1 [Example 666, (S)-N-(6-(1,4-diazepan-1-yl)-2-methoxypyridin-3-yl)-5-(3-((1-(1H-tetrazol-1-yl)propan-2-yl)oxy)-4-chlorophenyl)pyrimidin-2-amine]",< 10
